# From ChEMBL document CHEMBL5126584, “Synthesis of AC1903 analogs as potent transient receptor potential canonical channel 4/5 inhibitors and biological evaluation” (Bioorg Med Chem, 2022)
# Activity calls are given as the source filed them. The calls are words filed in the database; no cut-off is given here.
# Legend:
# [1] = molecular target: T1, Short transient receptor potential channel 5 (Homo sapiens, UniProt Q9UL62); assay: Inhibition of human TRPC5 channel expressed in HEK293 cells assessed as inhibition of EA-evoked Calcium influx by measuring reduction in intracellular Ca2+ level and measured upto 360 sec by Fluo-4/AM dye based FLIPR assay; format: cell-based
# T1 sequence (Q9UL62 whole entry): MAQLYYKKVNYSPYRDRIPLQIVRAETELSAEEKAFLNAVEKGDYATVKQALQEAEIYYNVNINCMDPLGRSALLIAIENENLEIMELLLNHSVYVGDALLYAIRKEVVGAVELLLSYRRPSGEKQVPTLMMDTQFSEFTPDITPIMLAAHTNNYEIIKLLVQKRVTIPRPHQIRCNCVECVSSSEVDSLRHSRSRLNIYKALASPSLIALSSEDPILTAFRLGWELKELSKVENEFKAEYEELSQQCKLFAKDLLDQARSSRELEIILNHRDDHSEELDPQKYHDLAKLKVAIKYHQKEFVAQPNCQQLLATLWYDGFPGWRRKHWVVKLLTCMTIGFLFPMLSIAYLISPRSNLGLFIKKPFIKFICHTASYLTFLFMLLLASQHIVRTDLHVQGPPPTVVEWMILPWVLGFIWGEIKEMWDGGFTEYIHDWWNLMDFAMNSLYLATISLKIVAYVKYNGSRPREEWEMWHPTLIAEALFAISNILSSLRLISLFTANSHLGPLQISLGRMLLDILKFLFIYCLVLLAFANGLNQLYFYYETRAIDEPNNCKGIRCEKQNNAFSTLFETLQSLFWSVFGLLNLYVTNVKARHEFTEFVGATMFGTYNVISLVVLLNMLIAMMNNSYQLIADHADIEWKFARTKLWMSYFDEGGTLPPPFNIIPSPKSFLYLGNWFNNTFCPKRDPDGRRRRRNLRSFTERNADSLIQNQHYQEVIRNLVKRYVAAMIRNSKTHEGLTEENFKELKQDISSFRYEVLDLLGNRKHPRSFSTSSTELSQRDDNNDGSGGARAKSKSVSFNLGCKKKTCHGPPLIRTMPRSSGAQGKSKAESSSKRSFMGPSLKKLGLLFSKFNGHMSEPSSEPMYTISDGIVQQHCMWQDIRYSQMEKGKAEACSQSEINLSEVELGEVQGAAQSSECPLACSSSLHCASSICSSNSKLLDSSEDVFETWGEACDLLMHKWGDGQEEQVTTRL
# [2] = test system: HaCaT; assay: Inhibition of IL-17 induced cell proliferation in human HaCaT cells assessed as decrease in BrdU positive (BrdU+) cells at 10 uM and measured after 24 hrs by BrdU incorporation assay; format: functional, cell-based
# [3] = test system: MPC-5; assay: Protective effect against protamine sulfate induced cytoskeleton rearrangement in mouse MPC-5 cell assessed as reduction in aggregated stress fibers at 10 uM pretreatment followed by PS stimulation and measured after 2 hrs by phalloidin and Hoechst 33342 staining based fluorescence analysis; format: functional
# [4] = molecular target: T2, Short transient receptor potential channel 4 (Homo sapiens, UniProt Q9UBN4); assay: Inhibition of human TRPC4 channel expressed in HEK293 cells assessed as inhibition of EA-evoked Calcium influx by measuring reduction in intracellular Ca2+ level and measured upto 360 sec by Fluo-4/AM dye based FLIPR assay; format: cell-based
# T2 sequence (Q9UBN4 whole entry): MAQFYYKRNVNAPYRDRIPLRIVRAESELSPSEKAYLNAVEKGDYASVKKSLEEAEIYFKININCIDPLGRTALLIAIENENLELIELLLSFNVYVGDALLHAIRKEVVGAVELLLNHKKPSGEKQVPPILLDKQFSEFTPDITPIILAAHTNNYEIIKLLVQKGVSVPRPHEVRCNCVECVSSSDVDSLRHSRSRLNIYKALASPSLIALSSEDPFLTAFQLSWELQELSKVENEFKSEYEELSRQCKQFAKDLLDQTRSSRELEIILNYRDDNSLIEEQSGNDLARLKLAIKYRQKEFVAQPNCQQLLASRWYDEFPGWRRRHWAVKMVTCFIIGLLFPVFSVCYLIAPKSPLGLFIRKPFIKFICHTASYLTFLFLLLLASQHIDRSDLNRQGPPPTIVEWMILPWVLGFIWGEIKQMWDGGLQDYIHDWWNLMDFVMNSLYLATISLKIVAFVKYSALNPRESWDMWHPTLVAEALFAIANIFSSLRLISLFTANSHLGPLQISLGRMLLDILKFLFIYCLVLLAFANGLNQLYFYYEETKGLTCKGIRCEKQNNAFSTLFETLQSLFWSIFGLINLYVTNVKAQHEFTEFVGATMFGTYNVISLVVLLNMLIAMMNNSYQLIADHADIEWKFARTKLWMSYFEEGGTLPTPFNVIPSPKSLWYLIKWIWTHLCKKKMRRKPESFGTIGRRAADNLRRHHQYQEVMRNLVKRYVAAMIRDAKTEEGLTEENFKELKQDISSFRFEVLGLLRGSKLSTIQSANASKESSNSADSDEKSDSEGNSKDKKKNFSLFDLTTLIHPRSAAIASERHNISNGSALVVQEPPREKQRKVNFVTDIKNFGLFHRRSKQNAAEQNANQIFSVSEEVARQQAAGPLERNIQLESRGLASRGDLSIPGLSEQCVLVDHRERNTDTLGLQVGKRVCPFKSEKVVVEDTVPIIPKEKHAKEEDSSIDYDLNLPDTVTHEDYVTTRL
# [5] = test system: HaCaT; assay: Inhibition of IL-17 induced cell proliferation in human HaCaT cells assessed as decrease in BrdU positive (BrdU+) cells at 0.3 to 3 uM and measured after 24 hrs by BrdU incorporation assay; format: functional, cell-based; details: dose 0.3-3 µM
# [6] = test system: HaCaT; assay: Inhibition of IL-17 induced inflammation in human HaCaT cells assessed as reduction in IL-8 mRNA level at 0.3 to 3 uM by qRT-PCR analysis; format: functional, cell-based; details: dose 0.3-3 µM
# [7] = test system: HaCaT; assay: Inhibition of IL-17 induced inflammation in human HaCaT cells assessed as reduction in IL-6 mRNA level at 0.3 to 3 uM by qRT-PCR analysis; format: functional, cell-based; details: dose 0.3-3 µM
# [8] = test system: HaCaT; assay: Inhibition of IL-17 induced inflammation in human HaCaT cells assessed as reduction in CCL-20 mRNA level at 0.3 to 3 uM by qRT-PCR analysis; format: functional, cell-based; details: dose 0.3-3 µM
# [9] = test system: MPC-5; assay: Protective effect against protamine sulfate induced cytoskeleton rearrangement in mouse MPC-5 cell assessed as reduction in aggregated stress fibers at 1 to 3 uM pretreatment followed by PS stimulation and measured after 2 hrs by phalloidin and Hoechst 33342 staining based fluorescence analysis; format: functional; details: dose 1-3 µM
IC50 [1],SMILES,other results
2210 nM,CCc1ccc2c(c1)nc(NCc1ccco1)n2Cc1ccc(OC)cc1,
670 nM,Cc1ccc2c(c1)nc(NCc1ccco1)n2Cc1ccccc1,
> 10000 nM,CCc1ccc2nc(NCc3ccco3)n(Cc3ccccc3)c2c1,
1350 nM,CCc1ccc2c(c1)nc(NCc1ccco1)n2Cc1ccc(C(F)(F)F)cc1,
4630 nM,CCc1ccc2c(c1)nc(NCc1ccco1)n2Cc1ccc(C)cc1,
> 10000 nM,CCc1ccc2c(c1)nc(N1CCC3(CCCO3)CC1)n2Cc1ccccc1,
2210 nM,CCc1ccc2c(c1)nc(NCc1ccc(Cl)o1)n2Cc1ccccc1,
> 10000 nM,CCc1ccc2c(c1)nc(NCc1ccco1)n2Cc1ccccc1C(F)(F)F,
570 nM,CC(C)c1ccc2c(c1)nc(NCc1ccco1)n2Cc1ccccc1,
> 10000 nM,CCc1ccc2c(c1)nc(N1CCN(C)CC1)n2Cc1ccccc1,
65000 nM,c1ccc(Cn2c(NCc3ccco3)nc3ccccc32)cc1,inhibition [2]: Active; Activity [3]: Active; IC50 [4]: 77200 nM
> 10000 nM,Cc1ccc2nc(NCc3ccco3)n(Cc3ccccc3)c2c1,
> 10000 nM,C#Cc1ccc2c(c1)nc(NCc1ccco1)n2Cc1ccccc1,
3350 nM,CCc1ccc2c(c1)nc(NCCN1CCCCC1)n2Cc1ccccc1,
820 nM,c1ccc(Cn2c(NCc3ccco3)nc3cc(C4CC4)ccc32)cc1,
1340 nM,CCCc1ccc2c(c1)nc(NCc1ccco1)n2Cc1ccccc1,
> 10000 nM,CCc1ccc2c(c1)nc(N1CC3(COC3)C1)n2Cc1ccccc1,
2640 nM,CCc1ccc2c(c1)nc(NCCN1CCOCC1)n2Cc1ccccc1,

IC50 [1],SMILES,other results
2930 nM,CCc1ccc2c(c1)nc(NCc1ccc(C)o1)n2Cc1ccccc1,
920 nM,CCc1ccc2c(c1)nc(NCc1ccco1)n2Cc1ccc(OC(F)(F)F)cc1,
2410 nM,CCc1ccc2c(c1)nc(NCc1cccs1)n2Cc1ccccc1,
2240 nM,CCc1ccc2c(c1)nc(NCc1ccco1)n2Cc1cccc(C(F)(F)F)c1,
2300 nM,CCc1ccc(Cn2c(NCc3ccco3)nc3cc(CC)ccc32)cc1,
540 nM,CCc1ccc2c(c1)nc(NCc1ccco1)n2Cc1ccccc1,inhibition [5]: Active; inhibition [6]: Active; IC50 [4]: 2060 nM; inhibition [7]: Active; inhibition [8]: Active; Activity [9]: Active
1020 nM,CCc1ccc2c(c1)nc(NCCc1ccco1)n2Cc1ccccc1,
> 10000 nM,CCc1ccc2c(c1)nc(N1CCC(C)CC1)n2Cc1ccccc1,
1820 nM,CCc1ccc2c(c1)nc(NCC1CCCO1)n2Cc1ccccc1 (stereo not given),
> 10000 nM,CCc1ccc2c(c1)nc(NCc1ccc(C#N)o1)n2Cc1ccccc1,
> 10000 nM,CCc1ccc2c(c1)nc(N1CCOCC1)n2Cc1ccccc1,
> 10000 nM,C=Cc1ccc2c(c1)nc(NCc1ccco1)n2Cc1ccccc1,
960 nM,CCc1ccc2c(c1)nc(NCc1ccco1)n2Cc1ccc(F)cc1,
2270 nM,CCc1ccc2c(c1)nc(NCC1CCOC1)n2Cc1ccccc1 (stereo not given),
> 10000 nM,Oc1ccc2c(c1)nc(NCc1ccco1)n2Cc1ccccc1,
3130 nM,CCc1ccc2c(c1)nc(NCc1ccccn1)n2Cc1ccccc1,
2950 nM,CCc1ccc2c(c1)nc(NCCc1ccncc1)n2Cc1ccccc1,
> 10000 nM,CCc1ccc2c(c1)nc(N1CC3CCC(C1)O3)n2Cc1ccccc1,
